The results in this text go back to PMC6934184, “Selective DNA-PKcs inhibition extends the therapeutic index of localized radiotherapy and chemotherapy” (The Journal of Clinical Investigation, 2019).

Each structure is given as a SMILES string.

As usually defined, the inhibition is the relative decrease from the control value, in per cent. Low values mean a response near the control, high ones a response far below the control.

This experiment addresses T1, LYN A (Homo sapiens, UniProt P07948).
T1 construct: purchased Thermo Fisher Scientific (Life Technologies) SelectScreen
The experiment in a line: SelectScreen Z'LYTE. It counts as biochemical. The gist of the method:
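Percent values come from Thermo SelectScreen profiling of NU5455, combining activity and binding assays. CSF1R was run in Z'LYTE format at Km app ATP, and CAMK1 in Adapta format with ATP listed at 10.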

T1 sequence (P07948 whole entry): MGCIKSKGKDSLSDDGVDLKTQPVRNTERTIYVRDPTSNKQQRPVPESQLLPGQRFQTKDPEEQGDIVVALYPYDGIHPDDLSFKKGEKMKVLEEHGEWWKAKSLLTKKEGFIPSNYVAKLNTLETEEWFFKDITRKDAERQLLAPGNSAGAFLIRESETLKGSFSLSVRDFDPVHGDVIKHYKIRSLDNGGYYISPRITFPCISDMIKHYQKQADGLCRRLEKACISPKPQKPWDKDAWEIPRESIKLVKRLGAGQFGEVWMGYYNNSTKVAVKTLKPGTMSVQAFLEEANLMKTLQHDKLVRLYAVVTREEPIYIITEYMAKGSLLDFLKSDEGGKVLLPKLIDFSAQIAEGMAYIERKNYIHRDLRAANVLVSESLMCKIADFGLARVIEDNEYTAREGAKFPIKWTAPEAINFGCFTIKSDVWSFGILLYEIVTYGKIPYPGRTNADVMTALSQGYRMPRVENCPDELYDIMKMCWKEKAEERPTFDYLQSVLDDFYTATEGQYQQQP

Turning to `CN(C(=O)CN1CCOCC1)c1ccc2sc3c(-c4cccc5c(=O)cc(N6CC7CCC(C6)O7)oc45)cccc3c2c1` [NU5455], at 1 µM the inhibition was 15.2%.
